Read-outs that look alike come from different tables or passages of the source.

Data set [1] has as its system Staphylococcus aureus. Conditions: cited from earlier work; for growth inhibitory action: alone; for effect with berberine against Staphylococcus aureus: combination with berberine, attributed to inhibition of MDR pump.
Data set [2] deals with Plasmodium berghei. Conditions: curcumin orally 100 mg/kg in combination with Artemisinin at 0.75 and 1.5 mg/mouse; cited from earlier work.
Data set [3] relates to Plasmodium falciparum. Conditions: cited from earlier work; for antimalarial effect: alone, catechins from a crude green tea extract; for effect on Artemisinin activity in vitro: combination with Artemisinin.
Data set [4] concerns malaria (P. falciparum) infection. Nature of the data set: Clinical trials in Haiti: 16-day low-dose Artemisinin with or without Citrus bioflavonoid. In kind it is in vivo, human. To be noted: single 16-day treatment; daily Artemisinin: babies 25 mg, children 2-12 years 50 mg, adults 100 mg; n=17.
Protocol: In one example, patients in Haiti with non-complicated and complicated malaria (P. falciparum) infection were recruited to test the efficacy of peroxybioflavonoid treatment. The treated patient population included infants (n=7), children under age 18 (n>100), and adults (n>75).
Each day, babies were given 25 mg, children 2-12 years old received 50 mg and adults 100 mg of Artemisinin (low-dose Artemisinin). In some patients, Artemisinin was given alone. In other patients, the Artemisinin was combined with Citrus bioflavonoid (peroxybioflavonoid). Patients were treated for 16 days.
The conditions of data set [5]: in vivo, cited from earlier work; for half-life in the blood: po.
The conditions of data set [6]: lambs; cited from earlier work.
The conditions of data set [7]: after consumption of 200 mg of naringenin, present in grapefruit juice; cited from earlier work.

As for `COc1cc(-c2oc3cc(OC)c(OC)c(O)c3c(=O)c2OC)ccc1O` [chrysoplenetin], in data set [1], the growth inhibitory action entry is recorded as “very weak” and the “effect with berberine against Staphylococcus aureus” value is listed as “synergistic effect”.

In the case of `COc1cc(/C=C/C(=O)CC(=O)/C=C/c2ccc(O)c(OC)c2)ccc1O` [curcumin], in data set [2], the “survival rate of infected mice” value is recorded as “increased survival rate”.

On to catechin gallate, for which, in data set [3], the antimalarial effect result is listed as “antimalarial effects of their own” and the “effect on Artemisinin activity in vitro” value is “potentiate the effects of Artemisinin”.

A word on the half-life: it is how long it takes for the measured level to halve. Regarding `C[C@@H]1CC[C@H]2[C@@H](C)C(=O)O[C@@H]3O[C@@]4(C)CC[C@@H]1[C@]32OO4` [Artemisinin], the “remained free of malaria post-treatment” value in data set [4] is “up to nine”. For the same molecule, in data set [5], the half-life result is listed as “very short”.

For `O=C(O[C@@H]1Cc2c(O)cc(O)cc2O[C@@H]1c1cc(O)c(O)c(O)c1)c1cc(O)c(O)c(O)c1` [epigallocatechin gallate], in data set [3], the antimalarial effect entry is on record as “antimalarial effects of their own” and the “effect on Artemisinin activity in vitro” value is “potentiate the effects of Artemisinin”.

Turning to `O=c1c(O)c(-c2ccc(O)c(O)c2)oc2cc(O)cc(O)c12` [quercetin], the bioavailability of moxidectin entry in data set [6] is on record as “increase the bioavailability”.

Take `COc1cc2oc(-c3ccc(O)c(O)c3)c(OC)c(=O)c2c(O)c1OC` [chrysosplenol-D]: in data set [1], the growth inhibitory action result was “very weak” and the “effect with berberine against Staphylococcus aureus” value is “synergistic effect”.

On to `CCO[C@H]1O[C@@H]2O[C@@]3(C)CC[C@H]4[C@H](C)CC[C@@H]([C@H]1C)[C@@]24OO3` [arteether], for which the half-life in data set [5] (im) was 7 to 9 h. Also, the “half-life in the blood” value in data set [5] was 1 to 2 h.

In the case of `C[C@H]1[C@H](OC(=O)CCC(=O)O)O[C@@H]2O[C@@]3(C)CC[C@H]4[C@H](C)CC[C@@H]1[C@@]24OO3` [artesunate], in data set [5] (im), the half-life was 7 to 9 h. In data set [5], the “half-life in the blood” value is 1 to 2 h.

Consider `O=C1C[C@@H](c2ccc(O)cc2)Oc2cc(O)cc(O)c21` [naringenin], for which the plasma concentrations in data set [7] was no more than 6.0 µM.

These data come from US20210196674A1, “Therapeutics for Malaria” (priority 2015, published 2021).
